Where no end group is shown, it is not given here. [ ]: non-standard residue; d: D form.
How the values were obtained:
[1] = Ethanol toxic stress in primary hepatocyte cultures (trypan blue exclusion); assay type: cell-based; conditions: primary hepatocyte cultures
Procedure: (§1) To learn whether Stressin peptide may protect from toxic stress, primary hepatocyte cultures were incubated with or without ethanol at a concentration of 0.6%, and with 50 μM Stressin-1 or without peptide. After 48 hours, the numbers of dead and alive cells were determined by trypan blue exclusion (Table 3).

[2] = system: primary hepatocyte cultures; assay: as above; assay type: cell-based; conditions: with 0.6% ethanol; 50 μM peptide; 48 hours
Procedure: as §1

[3] = system: L12 cells with p53; assay: Hyperthermia-induced cell death in L12 cells with active p53 (trypan blue); assay type: cell-based; conditions: 2 hours at 42° C., peptide 100 μg/ml
Procedure: The selected candidate peptides were tested for their ability to interfere with the p53-mediated cellular stress response by testing their capacity to inhibit the response to hyperthermia of the L12 cell line (Wolf, 1984), which lacks endogenous p53 activity and had been stably transfected with the p53 gene or a control vector. In these cells, p53 activity induces growth arrest and cell survival rather than apoptosis in response to hyperthermia (Nitta, 1997).
The amount of cell death was assessed by staining the cells with the vital dye trypan blue (Sigma) and counting the ratio of dead/live cells per visual field with a light microscope.
incubation for 2 hours at 42° C. induced death of all cells that lacked p53 and, in contrast, transient growth arrest and survival of about 80% of the cells with active p53. Four peptides, designated Stressin-1 to −4 (for STress RESponse Specific peptide INhibitor), were identified that at concentrations of 100 μg/ml inhibited p53-mediated growth arrest after hyperthermia and induced death of almost all cells with active p53, which is the response of L12 cells that lack p53 activity (Table 1); the peptide sequences are shown in Table 2.

[4] = system: L12 cells; assay: Cisplatin-induced p53-mediated cell death of L12 cells (DNA content, propidium iodide, FACS); assay type: cell-based; conditions: 50 μM Cisplatin, 48 hours
Procedure: L12 cells were treated for 48 hours with 50 μM of the DNA-damaging agent Cisplatin and p53-mediated cell death was determined by measuring the DNA content of cells stained with propidium iodide (FIG. 1). Cells incubated in the absence of peptide responded to Cisplatin treatment with p53-mediated cell death.

[5] = system: BALB/c mice; assay: Whole body γ-irradiation of BALB/c mice (radiation disease); assay type: in vivo; conditions: 6.5 Gy, 500 μg/mouse intraperitoneally one hour after irradiation
From the text: To test whether Stressin peptide may protect an organism from death by excessive p53 activation and tissue failure by subjecting BALB/c mice to whole body […] (6.5 Gy). A retro-inverso peptide was used to determine whether prolonged in vivo half-life would give an advantage (see Example 6); retro-inverso peptides are resistant to proteases and consist of D-amino acids in reversed order, resulting in an altered peptide backbone but unchanged orientation of the side chains (Van Regenmortel, 1998).
BALB/c mice were subjected to whole body γ-irradiation (6.5 Gy). One hour after irradiation, the mice received intraperitoneally either Stressin-1 (n=7; SEQ ID NO:1) or a modified, retro-inverso Stressin-1 peptide (n=7; SEQ ID NO:5), both at a concentration of 500 μg/mouse, or a sham injection with saline (n=6). The retro-inverso peptide was used to determine whether prolonged in vivo-half-life would give an advantage.

**Q.** For LPPLPYP [Stressin-1, LPPLPYP], which viability at 48 h, 50 µM [1] is on record?
**A.** 100%

**Q.** What about the Survival of hepatocytes [2] of the same substance?
**A.** 20%

**Q.** With SSLSVDYPTRYP [Stressin-4] as the substance, how does the “Incidence of cell death induced by hyperthermia” value (shortened to “Incidence of cell death induced”) [3] read?
**A.** 80%

**Q.** Which “Incidence of cell death induced” value [3] does the source give for DLSTDALHYRTA [Stressin-2] here?
**A.** 90%

**Q.** And the “cells rescued from p53-mediated cell death” value [4]?
**A.** 25%

**Q.** For HPTNQQSLWRWP [Stressin-3], which “Incidence of cell death induced” value [3] is on record?
**A.** 80%

**Q.** Which mice dead ([5]; after 17 days) does the source give for “PYPLPPL ([dP][dY][dP][dL][dP][dP][dL]; also: retro-inverso) [modified Stressin-1 peptide, retro-inverso Stressin-1 peptide, D-amino acids in reversed order]” here?
**A.** 29%

**Q.** What about the “mice recovered from radiation disease” value ([5]; after 40 days) of the same substance?
**A.** 57%

Source: patent publication US8790653B2, “Peptide inhibitors for mediating stress responses” (Yeda Research and Development Co. Ltd., priority 2004, dated 2014)
